# Assay results taken from patent publication US20110311601A1, “ANTIMICROBIAL MEDICAL DEVICES” (priority 2010, published 2011).
# Where no end group is shown, it is not given here.
# Tests used:
# Assay in all cases: micro-dilution assay (MBC, LD90)
# Assay type in all cases: cell-based
# [1] = tested on: Helicobacter pylori ATCC 49503
# Procedure: (§1) The anti-bacterial activity of hβD2 was tested by a micro-dilution assay. Bacteria and fungi were streaked from a glycerol stock onto a Brain Heart Infusion (BHI) agar plate (3.7% w/v BHI Bouillon, 1.5% w/v Agar), grown overnight at 37° C. and 30° C., respectively and subsequently used to inoculate 40 ml of 3.7% w/v BHI Bouillon without any antibiotics in 100 ml flasks. Fresh cells were harvested by centrifugation at 16000 rpm for 10 min and washed twice with 10 mM sodium phosphate buffer, pH 7.2. The optical density was adjusted to 10^4 cells/ml. For anti-bacterial testing hβD2 was incubated in one well of a microtiter plate containing 100 μl of the bacterial suspension. Therefore, ten microlitres of hβD2 solution with a range of final concentrations tested from 0.0125 up to and including 100 mg/l was added to the bacterial suspension and incubated at 37° C. and 30° C., respectively for 2 h before colony forming units were determined. Colony forming units (CFU) were determined after plating 100 μl of a 1:100 dilution of the bacterial suspension on petri dishes with BHI medium and incubating them overnight at 37° C. For every group of the hβD2 added samples and the controls, 5 independent anti-bacterial assays were performed. A control (NC) of bacterial growth was examined for every independent assay. The number of CFU on the control (consisting of a single petri dish) was set to 0% bactericidal activity. The reduction in the CFU resulting from the anti-bacterial activity of hβD2 was related to the absolute CFU of the control within every independent assay. This value, given as a percentage of the bacterial “killing” activity, was used to describe the antibacterial activity. This kind of normalisation of the antibacterial data was performed for every experimental group.
# (§2) The antibacterial activity of hβD2 were given either as minimum bactericidal concentration (MBC), i.e., the minimum concentration of hβD2 in μg/ml which is required to kill 99.9% of the bacteria or fungi or as lethal dose (LD90), i.e., the concentration of hβD2 in μg/ml which is lethal for 90% of bacteria or fungi.
# [2] = tested on: Providencia stuartii NCTC 10318
# Procedure: as §1, §2
# [3] = tested on: Pseudomonas aeruginosa CF 479 mr (wild-type)
# Procedure: as §1, §2
# [4] = tested on: Proteus vulgaris BK 8730/99 (wild-type)
# Procedure: as §1, §2
# [5] = tested on: Pseudomonas aeruginosa CF 509 mr (wild-type)
# Procedure: as §1, §2
# [6] = tested on: Proteus mirabilis UR 1354/03 (wild-type)
# Procedure: as §1, §2
# [7] = tested on: Staphylococcus aureus (MRSA 355) (wild-type)
# Procedure: as §1, §2
# [8] = tested on: E. coli ATCC 35218
# Procedure: as §1, §2
# [9] = tested on: Serratia marcescens Mero 103/013 (wild-type)
# Procedure: as §1, §2
# [10] = tested on: Proteus mirabilis (ESBL 8) (wild-type)
# Procedure: as §1, §2
# [11] = tested on: Acinetobacter Genosp. 10 ATCC 17924
# Procedure: as §1, §2
# [12] = tested on: Acinetobacter lwoffii ATCC 15309
# Procedure: as §1, §2
# [13] = tested on: Candida glabrata Va 27966/02 (wild-type)
# Procedure: as §1, §2
# [14] = tested on: Candida albicans C.a 14 (wild-type)
# Procedure: as §1, §2
# [15] = tested on: Citrobacter freundii NCTC 9750
# Procedure: as §1, §2
# [16] = tested on: Corynebacterium amycolatum RV A2/97
# Procedure: as §1, §2
# [17] = tested on: Candida albicans ATCC 10231
# Procedure: as §1, §2
# [18] = tested on: Klebsiella pneumoniae ATCC 700603 ESBL
# Procedure: as §1, §2
# [19] = tested on: Proteus vulgaris Mero 103/067 (wild-type)
# Procedure: as §1, §2
# [20] = tested on: E. coli ATCC 25922
# Procedure: as §1, §2
# [21] = tested on: Staphylococcus epidermidis ATCC 14990
# Procedure: as §1, §2
# [22] = tested on: Acinetobacter genosp. 3 ATCC 19004
# Procedure: as §1, §2
# [23] = tested on: Propionibacterium acnes NCTC 737
# Procedure: as §1, §2
# [24] = tested on: Candida glabrata UR 5836/02 (wild-type)
# Procedure: as §1, §2
# [25] = tested on: Morganella morganii RV B4/97
# Procedure: as §1, §2
# [26] = tested on: Streptococcus pyogenes ATCC 12344
# Procedure: as §1, §2
substance,measurement,setting,value
"human β-defensin-2 (GIGDPVTCLKSGAICHPVFCPRRYKQIGTCGLPGTKCCKKP; ends and bridges not checked; cysteine pairing not given here) [hβD2, recombinant hβD2]",LD 90 = μg/ml 90% killing,[1],12.5 µg/mL
same,MBC = μg/ml 99.9% killing,[1],50 µg/mL
same,LD 90 = μg/ml 90% killing,[2],100 µg/mL
same,MBC = μg/ml 99.9% killing,[2],>100 µg/mL
same,LD 90 = μg/ml 90% killing,[3],12.5 µg/mL
same,MBC = μg/ml 99.9% killing,[3],25 µg/mL
same,LD 90 = μg/ml 90% killing,[4],100 µg/mL
same,MBC = μg/ml 99.9% killing,[4],>100 µg/mL
same,LD 90 = μg/ml 90% killing,[5],12.5 µg/mL
same,MBC = μg/ml 99.9% killing,[5],25 µg/mL
same,LD 90 = μg/ml 90% killing,[6],100 µg/mL
same,MBC = μg/ml 99.9% killing,[6],>100 µg/mL
same,LD 90 = μg/ml 90% killing,[7],25 µg/mL
same,MBC = μg/ml 99.9% killing,[7],100 µg/mL
same,LD 90 = μg/ml 90% killing,[8],3.125 µg/mL
same,MBC = μg/ml 99.9% killing,[8],6.25 µg/mL
same,LD 90 = μg/ml 90% killing,[9],100 µg/mL
same,MBC = μg/ml 99.9% killing,[9],>100 µg/mL
same,LD 90 = μg/ml 90% killing,[10],100 µg/mL
same,MBC = μg/ml 99.9% killing,[10],>100 µg/mL
same,LD 90 = μg/ml 90% killing,[11],0.39 µg/mL
same,MBC = μg/ml 99.9% killing,[11],1.56 µg/mL
same,LD 90 = μg/ml 90% killing,[12],0.39 µg/mL
same,MBC = μg/ml 99.9% killing,[12],0.78 µg/mL
same,LD 90 = μg/ml 90% killing,[13],12.5 µg/mL
same,MBC = μg/ml 99.9% killing,[13],>100 µg/mL
same,LD 90 = μg/ml 90% killing,[14],12.5 µg/mL
same,MBC = μg/ml 99.9% killing,[14],25 µg/mL
same,LD 90 = μg/ml 90% killing,[15],12.5 µg/mL
same,MBC = μg/ml 99.9% killing,[15],50 µg/mL
same,LD 90 = μg/ml 90% killing,[16],6.25 µg/mL
same,MBC = μg/ml 99.9% killing,[16],25 µg/mL
same,LD 90 = μg/ml 90% killing,[17],12.5 µg/mL
same,MBC = μg/ml 99.9% killing,[17],25 µg/mL
same,LD 90 = μg/ml 90% killing,[18],25 µg/mL
same,MBC = μg/ml 99.9% killing,[18],100 µg/mL
same,LD 90 = μg/ml 90% killing,[19],100 µg/mL
same,MBC = μg/ml 99.9% killing,[19],>100 µg/mL
same,LD 90 = μg/ml 90% killing,[20],6.25 µg/mL
same,MBC = μg/ml 99.9% killing,[20],12.5 µg/mL
same,LD 90 = μg/ml 90% killing,[21],50 µg/mL
same,MBC = μg/ml 99.9% killing,[21],100 µg/mL
same,LD 90 = μg/ml 90% killing,[22],0.2 µg/mL
same,MBC = μg/ml 99.9% killing,[22],0.78 µg/mL
same,LD 90 = μg/ml 90% killing,[23],50 µg/mL
same,MBC = μg/ml 99.9% killing,[23],100 µg/mL
same,LD 90 = μg/ml 90% killing,[24],6.25 µg/mL
same,MBC = μg/ml 99.9% killing,[24],50 µg/mL
same,LD 90 = μg/ml 90% killing,[25],100 µg/mL
same,MBC = μg/ml 99.9% killing,[25],>100 µg/mL
same,LD 90 = μg/ml 90% killing,[26],100 µg/mL
same,MBC = μg/ml 99.9% killing,[26],>100 µg/mL
